Series [1] relates to AChE. The following applies: cited from earlier work.
In series [2] the test system is BChE. The following applies: cited from earlier work.
Another series concerns the target T1, recombinant human MAO-B (Homo sapiens, UniProt P27338).
T1 construct: purchased Sigma-Aldrich
T1 sequence (P27338 1-520): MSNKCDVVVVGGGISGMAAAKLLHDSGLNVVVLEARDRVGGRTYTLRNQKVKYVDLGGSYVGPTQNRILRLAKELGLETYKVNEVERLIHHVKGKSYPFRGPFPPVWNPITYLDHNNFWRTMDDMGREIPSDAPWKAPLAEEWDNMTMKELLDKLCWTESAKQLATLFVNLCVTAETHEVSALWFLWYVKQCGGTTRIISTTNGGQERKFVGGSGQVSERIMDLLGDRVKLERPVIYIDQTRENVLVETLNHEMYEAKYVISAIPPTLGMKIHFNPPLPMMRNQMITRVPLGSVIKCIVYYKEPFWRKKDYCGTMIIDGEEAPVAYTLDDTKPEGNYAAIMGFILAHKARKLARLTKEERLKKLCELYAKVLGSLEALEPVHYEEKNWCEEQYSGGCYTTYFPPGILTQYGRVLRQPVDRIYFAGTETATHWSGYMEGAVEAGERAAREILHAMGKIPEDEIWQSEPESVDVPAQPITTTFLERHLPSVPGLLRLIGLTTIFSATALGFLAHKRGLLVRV
Kind of series: MAO-B inhibition assay (benzylamine). The class given is biochemical. The following applies: inhibitor 10 µM; for remaining activity at 10 µM: read-out: Residual activity at 10 µM (%) MAO-B. As for the experimental part:
(§1) AChE assays were performed as described by Ellman et al.[41] with slight modifications. […] DTNB was used for color development, caused by reaction between it and thiocholine (a product of AChE). For inhibitory assays, compounds were preincubated with AChE for 15 min prior to ATCI and DTNB addition. BChE activity was assayed using the same method, but BTCI was used instead of ATCI.
(§2) Inhibitions of the activities of AChE, BChE, MAO-A, and MAO-B by the 15 compounds were investigated at an inhibitor concentration of 10 µM. IC50 values were also determined. […] The inhibition types and Ki values were determined using Lineweaver–Burk Plots and secondary plots.

For series [3], the system named is LPS-stimulated RAW264.7 cells. Set-up: method as in PMID 31704444. The following applies: at 10 µg/µL; cited from earlier work.
On the set-up of series [4]: method as in PMID 31704444. The following applies: up to 10 µg/µL (i.e., ~ 25 mM); cited from earlier work.
Series [5] has as its target T2, AChE (Type VI-S; from Electrophorus electricus) (Electrophorus electricus, UniProt O42275).
T2 construct: AChE (Type VI-S; from Electrophorus electricus); purchased Sigma-Aldrich Type VI-S (catalogue number not given)
Kind of series: biochemical. The following applies: for IC50 / remaining activity at 10 µM / Residual activity at 10 µM (%) AChE: 15 min preincubation; for IC50: read-out: IC50 (µM) AChE; for remaining activity at 10 µM: read-out: Residual activity at 10 µM (%) AChE, inhibitor 10 µM; for SI = IC50 of AChE/ IC50 of BChE: selectivity index; for Ki: Lineweaver–Burk and secondary plots, read-out: Ki value for AChE inhibition; for Inhibition type, AChE: Lineweaver–Burk plots; for Residual activity at 10 µM (%) AChE: inhibitor 10 µM. As for the experimental part:
as §1, §2

In a further series the target is T3, BChE (from equine serum) (Equus caballus, UniProt P81908).
T3 construct: BChE (from equine serum); purchased Sigma-Aldrich; host or cells: equine serum
Kind of series: biochemical. The following applies: for IC50: read-out: IC50 (µM) BChE. As for the experimental part:
as §1, §2

The target of series [6] is T4, BChE (Equus caballus, UniProt P81908).
T4 construct: BChE (from equine serum); purchased Sigma-Aldrich; host or cells: equine serum
As to the kind of experiment: Reversibility of BChE inhibition by dialysis. The class given is biochemical, equine. Here is the method:
(§3) Inhibitor reversibilities were examined using the dialysis method, using with AChE or BChE, rather than MAO enzymes. […] Dialysis was conducted for 6 h with stirring and two buffer changes. Residual activities before (AU) and after (AD) dialysis were compared to those of non-treated controls, and reversibility types were determined by comparing AD and AU values.
(§4) For recovery experiments, preincubated enzyme mixtures were dialyzed as described in the text.

In a further series the target is T5, recombinant human MAO-A (Homo sapiens, UniProt P21397).
T5 construct: purchased Sigma-Aldrich
T5 sequence (P21397 1-527): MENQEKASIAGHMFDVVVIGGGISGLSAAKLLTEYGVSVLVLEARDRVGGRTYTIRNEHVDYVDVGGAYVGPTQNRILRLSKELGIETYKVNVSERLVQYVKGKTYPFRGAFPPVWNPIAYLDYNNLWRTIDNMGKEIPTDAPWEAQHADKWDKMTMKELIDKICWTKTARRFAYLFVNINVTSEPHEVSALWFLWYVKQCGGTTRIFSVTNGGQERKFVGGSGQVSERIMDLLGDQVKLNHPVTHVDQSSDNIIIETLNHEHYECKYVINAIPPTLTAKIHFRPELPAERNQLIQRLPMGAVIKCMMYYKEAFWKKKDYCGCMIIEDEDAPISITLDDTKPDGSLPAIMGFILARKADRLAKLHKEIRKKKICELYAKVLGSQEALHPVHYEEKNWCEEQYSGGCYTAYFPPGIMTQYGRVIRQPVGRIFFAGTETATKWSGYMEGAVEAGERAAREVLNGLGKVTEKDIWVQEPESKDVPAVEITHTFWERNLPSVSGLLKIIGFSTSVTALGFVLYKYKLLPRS
Kind of series: MAO-A inhibition assay (kynuramine). The class given is biochemical. The following applies: inhibitor 10 µM; for remaining activity at 10 µM: read-out: Residual activity at 10 µM (%) MAO-A. Here is the method: as §1, §2

In series [7] the target is T6, AChE (Electrophorus electricus, UniProt O42275).
T6 construct: AChE (Type VI-S; from Electrophorus electricus); purchased Sigma-Aldrich Type VI-S (catalogue number not given)
As to the kind of experiment: Reversibility of AChE inhibition by dialysis. The following applies: for Reversibility of AChE inhibition: dialysis method; for Residual AChE activity before dialysis (AU) / Residual AChE activity after dialysis (AD): inhibitor ~ 2 × IC50: PJ13, 20 µM, PJ15, 20 µM, tacrine, 0.54 µM; for Residual AChE activity before dialysis (AU): 30 min preincubation; for Residual AChE activity after dialysis (AD): dialysis 6 h. The class given is biochemical. As for the experimental part: as §3, §4

Values joined by “and” are separate entries in the source; they are usually repeats but may differ in a detail not shown here. Equal entries are not always repeated. Where two headings read alike, the source gives them in different places.

T3 sequence (P81908 whole entry): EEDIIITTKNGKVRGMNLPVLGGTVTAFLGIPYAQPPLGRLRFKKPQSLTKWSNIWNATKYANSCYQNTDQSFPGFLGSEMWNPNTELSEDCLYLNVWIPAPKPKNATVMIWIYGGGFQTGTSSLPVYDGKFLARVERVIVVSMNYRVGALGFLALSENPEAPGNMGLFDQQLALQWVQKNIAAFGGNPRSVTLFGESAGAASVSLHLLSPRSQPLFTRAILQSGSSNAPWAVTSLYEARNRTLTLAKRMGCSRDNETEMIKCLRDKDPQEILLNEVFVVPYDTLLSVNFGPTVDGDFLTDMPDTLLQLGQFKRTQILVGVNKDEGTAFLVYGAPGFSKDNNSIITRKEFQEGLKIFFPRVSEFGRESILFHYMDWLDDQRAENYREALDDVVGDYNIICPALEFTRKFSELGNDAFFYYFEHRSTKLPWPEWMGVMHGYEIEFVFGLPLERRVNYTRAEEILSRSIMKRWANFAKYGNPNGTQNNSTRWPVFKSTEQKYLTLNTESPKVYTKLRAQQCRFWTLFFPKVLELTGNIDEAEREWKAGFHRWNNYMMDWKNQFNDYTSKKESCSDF
T4 sequence (P81908 whole entry): as above
T2 sequence (O42275 24-633): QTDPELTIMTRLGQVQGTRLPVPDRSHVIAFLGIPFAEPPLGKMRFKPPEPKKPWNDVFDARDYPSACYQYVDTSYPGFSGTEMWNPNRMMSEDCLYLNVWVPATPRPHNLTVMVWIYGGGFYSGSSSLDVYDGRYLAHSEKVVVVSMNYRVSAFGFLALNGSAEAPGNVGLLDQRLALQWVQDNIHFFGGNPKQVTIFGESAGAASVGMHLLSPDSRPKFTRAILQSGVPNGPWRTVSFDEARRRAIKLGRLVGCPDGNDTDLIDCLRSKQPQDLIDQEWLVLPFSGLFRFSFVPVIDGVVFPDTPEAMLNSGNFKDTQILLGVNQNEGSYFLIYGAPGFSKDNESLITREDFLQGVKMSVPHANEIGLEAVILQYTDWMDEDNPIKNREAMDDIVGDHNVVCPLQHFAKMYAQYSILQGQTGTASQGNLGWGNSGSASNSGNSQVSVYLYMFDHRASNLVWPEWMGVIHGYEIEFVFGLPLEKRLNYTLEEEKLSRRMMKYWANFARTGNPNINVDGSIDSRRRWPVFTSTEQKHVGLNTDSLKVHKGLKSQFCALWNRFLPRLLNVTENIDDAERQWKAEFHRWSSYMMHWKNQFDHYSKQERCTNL
T6 sequence (O42275 24-633): as above

With `C/C=C(/C)C(=O)O[C@H]1[C@H](O)c2cc3ccc(=O)oc3cc2OC1(C)C` [4′-hydroxy Pd–C-III], the IC50 (in general, the concentration that inhibits the measured activity by half) was 1.09 µM in the series on AChE [1] (from Angelica decursiva) and 5.78 µM in the series on BChE [2] (from A. decursiva).
As to `C/C=C(/C)C(=O)O[C@@H]1c2c(ccc3ccc(=O)oc23)OC(C)(C)[C@@H]1OC(=O)C=C(C)C` [PJ5, senecioyl-4′-angeloyl-khellactone], the values for the remaining activity at 10 µM (at recombinant human MAO-B; in [5]; at recombinant human MAO-A) were 96 ± 0.52%, 96 ± 2.83% and 84.7 ± 9.3%, respectively. Besides, in series [3], the Anti-inflammatory effects entry is given as “potent”. Also, the Toxicity result in series [4] is recorded as “non-toxic”. The IC50 in series [5] is above 40 µM; on BChE (from equine serum) (15 min preincubation), 7.22 µM and 7.2 µM. Further, the “SI = IC50 of AChE/ IC50 of BChE” value in series [5] is on record as above 5.54. In addition, on BChE (from equine serum) (Lineweaver–Burk and secondary plots, read-out: Ki value for BChE inhibition), the Ki – broadly, the dissociation constant of the complex between target and ligand, obtained from inhibition or displacement – was 4.16 µM. The “Inhibition type, BChE” value at BChE (from equine serum) (Lineweaver–Burk plots) was “mixed-type”. On BChE [6] (dialysis method), the “Reversibility of BChE inhibition” value is given as “reversible”. Further, the “Residual BChE activity before dialysis (AU)” value on BChE [6] (inhibitor ~ 2 × IC50: PJ5, 14 µM, tacrine, 0.54 µM, 30 min preincubation) is recorded as 41.2%. Further, at BChE [6] (inhibitor ~ 2 × IC50: PJ5, 14 µM, tacrine, 0.54 µM, dialysis 6 h), the “Residual BChE activity after dialysis (AD)” value came to 86.8%.
As to `C/C=C(/C)C(=O)O[C@@H]1[C@H](OC(=O)C(C)CC)c2c(ccc3ccc(=O)oc23)OC1(C)C` (some centres unmarked) [PJ13, 3′-angeloyl-4′-(2-methylbutyryl)khellactone], the remaining activity at 10 µM at recombinant human MAO-B is 64.6 ± 8.82%. Further, the Anti-inflammatory effects entry in series [3] is reported as “potent”. Further, the Toxicity entry in [4] was “non-toxic”. In addition, in series [5], the IC50 was determined as 9.28 ± 0.094 µM; the Ki is 5.98 µM; the “Inhibition type, AChE” value is “mixed-type”; the remaining activity at 10 µM is below 50%. Besides, the “SI = IC50 of AChE/ IC50 of BChE” value in [5] is on record as below 0.23. Also, the “Residual activity at 10 µM (%) AChE” value in series [5] (10 µM) came to 48.0 ± 9.40%. Further, at BChE (from equine serum) (15 min preincubation), the IC50 was above 40 µM. Also, at AChE [7], the “Reversibility of AChE inhibition” value was “reversible”, the “Residual AChE activity before dialysis (AU)” value is on record as 34.7% and the “Residual AChE activity after dialysis (AD)” value is 72.3%. The remaining activity at 10 µM on recombinant human MAO-A amounted to 88.5 ± 5.41%.
In the case of `CCC(C)C(=O)O[C@@H]1c2c(ccc3ccc(=O)oc23)OC(C)(C)[C@@H]1OC(=O)CC(C)C` (some centres unmarked) [PJ15, 3′-isovaleryl-4′-(2-methylbutyroyl)khellactone], the remaining activity at 10 µM on recombinant human MAO-B stood at 73.3 ± 7.21%. The Anti-inflammatory effects entry in series [3] is “potent”. Further, in series [4], the Toxicity result is “non-toxic”. Moreover, in [5], the IC50 amounted to 10 ± 0.48 µM; the Ki was determined as 10.4 µM; the “Inhibition type, AChE” value is on record as “mixed-type”; the remaining activity at 10 µM is below 50%. In series [5], the “SI = IC50 of AChE/ IC50 of BChE” value is recorded as below 0.25. In [5] (10 µM), the “Residual activity at 10 µM (%) AChE” value came out at 50.0 ± 2.82%. Besides, the IC50 at BChE (from equine serum) (15 min preincubation) was above 40 µM. Besides, at AChE [7], the “Reversibility of AChE inhibition” value is “reversible”, the “Residual AChE activity before dialysis (AU)” value is on record as 32.8% and the “Residual AChE activity after dialysis (AD)” value is on record as 68.7%. On recombinant human MAO-A, the remaining activity at 10 µM was 76.9 ± 4.2%.
Take `O=c1ccc2ccc(O)c(O)c2o1` [daphnetin]: the IC50 with AChE [1] (from Artemisia capillaris) is 11.6 µM; in the series with BChE [2] it was 8.66 µM.
Take `O=c1ccc2cc(O)c(O)cc2o1` [esculetin]: the IC50 was 6.13 µM in the series with AChE [1] (from Artemisia capillaris) and 9.29 µM in the series with BChE [2].
Turning to Pteryxin [PJ2], the “Residual activity at 10 µM (%) MAO-B” value on recombinant human MAO-B is 79.7 ± 3.47%. Moreover, the “Residual activity at 10 µM (%) AChE” value in series [5] was determined as 73.4 ± 11.3%. Besides, the “Residual activity at 10 µM (%) BChE” value at BChE (from equine serum) (inhibitor 10 µM, 15 min preincubation) is given as 87.6 ± 7.14%. Moreover, the half-maximal inhibitory concentration (IC50) in the series on BChE [2] (converted from μg/mL, from M. purpurea) is 33.5 µM. In addition, the “IC50 BChE” value with BChE [2] (from M. purpurea) was 12.96 µg/mL. The “Residual activity at 10 µM (%) MAO-A” value at recombinant human MAO-A worked out at 85.4 ± 3.80%.
